Consider 1 compound from article PMC8952293, “A Histone Deacetylase (HDAC) Inhibitor with Pleiotropic In Vitro Anti-Toxoplasma and Anti-Plasmodium Activities Controls Acute and Chronic Toxoplasma Infection in Mice” (International Journal of Molecular Sciences, 2022).

Data set [1] deals with P. berghei hepatic infection. Briefly: In vitro P. berghei hepatic infection of Huh7 cells (bioluminescence). The data set is classed as cell-based. Particulars: Plasmodium berghei, Huh-7. As for the experimental part: Huh7 cells, a human hepatic cell line employed in the assessment of drug activity against the hepatic stage of P. berghei infection, were cultured in RPMI 1640 supplemented with 10% (v/v) fetal bovine serum, 1% (v/v) penicillin/streptomycin, 1% (v/v) glutamine, 1% (v/v) nonessential amino acids, and 10 mM N-2-hydroxyethylpiperazine-N′-2-ethanesulfonic acid (HEPES) at 37 °C and 5% CO2. For infection, Huh7 cells were seeded in 96-well plates at 1 × 10^4 cells/well.
Liver stage. The action of JF363 against the liver stage of P. berghei infection was assessed by bioluminescence, as previously described. Briefly, one day before infection, Huh7 cells were seeded in 96-well plates. JF363 stock solution was prepared in dimethyl sulfoxide (DMSO) and serially diluted in infection medium (culture medium supplemented with 50 µg/mL of gentamicin and 0.8 µg/mL of fungizone) to obtain the test concentrations (1, 10, 25, 50, […], 500 nM). […] At 46 h post-infection, the impact of the compound on cell viability was assessed by the AlamarBlue assay (Invitrogen, Carlsbad, CA, USA), following the manufacturer’s instructions. Following the manufacturer’s instructions, the drug’s effect on the parasite load was next evaluated using the Firefly Luciferase Assay Kit 2.0 (Biotium, Fremont, CA, USA). […]

Data set [2] is described as follows: Ex vivo biodistribution, ratios infected/control mice. The data set is classed as in vivo. Particulars: suggested from brain radioactivity of the iodinated radiotracer. As for the experimental part: Twenty-four hours after injection and immediately following SPECT/CT image acquisitions, anesthetized mice were euthanized using CO2, and tissue samples (brain, heart, stomach, liver, salivary glands, abdominal fat, small intestine, muscle, pancreas, lungs, spleen, kidneys, blood, thyroid, large intestine, genital tract) and urine were harvested. Samples were weighed, and their radioactivity was determined with a gamma counter (Wizard2, PerkinElmer, Courtaboeuf, France). Results were corrected for decay, injected dose, and organ weight and expressed as % ID/g because the bodyweight (BW) of mice was different between both groups (normal and infected).
Standard uptake values (SUVs) were also calculated ((tissue activity/gram of tissue)/ID × BW). Due to high activity detected in the animal blood, results were also expressed as a ratio between %ID in a gram of organ and %ID in a gram of blood (org/blood ratio). Then, to assess the effect of Toxoplasma infection on the biodistribution of the iodoJF363, the ratios of radioactivity (infected/noninfected) were calculated.

The test system of data set [3] is T. gondii type I RH strain. As to the kind of experiment: Acute toxoplasmosis survival study in CD1 mice. The format is in vivo, mouse. Particulars: for mouse survival, by day: once a day for 7 days, untreated infected mice succumbed by day 9. As for the experimental part:
To determine the in vivo anti-Toxoplasma effect of the molecule JF363 during the acute phase of infection, we analyzed the survival rate of non-inbred CD1 mice infected by the type I RH strain treated for […]. […] All untreated and infected mice succumbed by day 9 (Figure 3).
Non-inbred CD1a mice (Janvier Labs, Le Genest-Saint-Isle, France) were intraperitoneally infected with 100 tachyzoites of RH YFP strain in […] of PBS. Six hours post-infection and then once a day for 7 days, mice were treated per os with either 40 or 160 mg/kg of JF363 prepared in corn oil/5% DMSO. Control animals were treated with the vehicle alone. Animals were monitored each day and sacrificed when the limit points were reached.

What is called IC50 is the midpoint of a concentration-inhibition curve. A low value points to higher potency. As for `COc1cccc(CC(=O)Nc2ccc(C(=O)NO)cc2)c1` [JF363], the IC50 in data set [1] (Pb hepatic infection, Huh7 cells, 46 h post-infection) is 98.9 ± 22.7 nM; in data set [1] (hepatic stage of Plasmodium infection (discussion)), roughly 100 nM. The “blood–brain barrier permeability” value in data set [2] is listed as “suggests a permeability of the blood–brain barrier”. Moreover, the “mouse survival, by day” value was 11 days in data set [3] (40 mg/kg oral) and 14 days in data set [3] (160 mg/kg oral). Also, the “increase of mouse survival” value in data set [3] (40 mg/kg oral, lethal dose of RH strain) was “two days”.
